One experiment has as its system DNA polymerase. From the text: FIGS. 23A-23B. MALDI-TOF mass spectra of DNA extension products from polymerase reactions using 3′-O-Rox-SS-dATP for 5, 10, and 30 cycles.
FIGS. 25A-25C. MALDI-TOF mass spectrum of DNA extension products from polymerase reactions using a mixture of 3′-O-tButyl-SS-dATP and 3′-O-Rox-SS-dATP at a 1:1 ratio. […] FIG. 25B: 3′-O-tButyl-SS-dATP (M.W. 625). FIG. 25C: 3′-O-Rox-SS-dATP (M.W. 1157).
FIG. 26. MALDI-TOF mass spectrum of a DNA extension product from polymerase reaction using 3′-O-TCO-SS-dTTP.
FIGS. 27A-27B. MALDI-TOF mass spectrum of a DNA extension product from polymerase reaction using 3′-O-Biotin-dCTP.
FIGS. 28A-28C. MALDI-TOF mass spectrum of DNA extension products from polymerase reaction using with a mixture of 3′-O-Rox-SS-dATP and 3′-O-Rox-PEG4-SS-dATP at a 1:1 ratio.

Experiment [1] deals with Therminator IX DNA polymerase. The experiment is described as follows: Polymerase extension reaction with 3′-O-modified reversible terminators, MALDI-TOF MS readout. As to conditions: extension reactions incl. 1:1 mixtures of two terminators, MALDI-TOF MS (FIGS. 23A-28C). Type of experiment: biochemical. The protocol:
The reaction was conducted in an ABI GeneAmp PCR System 9700 with initial incubation at 65° C. for 30 second, followed by 38 cycles of 65° C./30 sec, 45° C./30 sec, 65° C./30 sec. Multiple reactions were carried out and an aliquot of the reaction mixture was desalted using a C18 ZipTip column (Millipore, MA) and analyzed by MALDI-TOF MS (ABI Voyager DE). Polymerase extension reaction using 3'-O-SS-Rox-dATP for 5, 10, and 30 cycles. […] The reactions were conducted in an ABI GeneAmp PCR System 9700 with initial incubation at 65° C. for 30 second, followed by 5, 10, or 30 cycles of 65° C./30 sec, 45° C./30 sec, 65° C./30 sec. The reaction mixtures were desalted using Oligo Clean & ConcentratorTM (ZYMO Research) and analyzed by MALDI-TOF MS (ABI Voyager DE) and the results are shown in FIGS. 23A-23B. DNA template: [NT] ID NO:6). […] The reaction mixtures were desalted using Oligo Clean & ConcentratorTM (ZYMO Research) and analyzed by MALDI-TOF MS (ABI Voyager DE) the result is shown in FIG. 24. […] The reaction mixtures were desalted using Oligo Clean & ConcentratorTM (ZYMO Research) and analyzed by MALDI-TOF MS (ABI Voyager DE) the result is shown in FIGS. 25A-25C. […] The reaction mixtures were desalted using Oligo Clean & ConcentratorTM (ZYMO Research) and analyzed by MALDI-TOF MS (ABI Voyager DE) the result is shown in FIGS. 28A-28C. […]

As for `CC(C)(C)SSCO[C@H]1C[C@H](n2cnc3c(N)ncnc32)O[C@@H]1COP(=O)(O)OP(=O)(O)OP(=O)(O)O` [3′-O-tButyl-SS-dATP, 3′-O-t-Butyldithiomethyl(SS)-dATP], the extension entry in the experiment on DNA polymerase (after 5 cycles of extension) is “completed”. In the experiment with DNA polymerase (mixture at a 1:1 ratio), the “efficiency of incorporation by polymerase versus 3′-O-Rox-SS-dATP” value is listed as “much higher efficiency”. Moreover, in the experiment with DNA polymerase (mixture at a 1:1 ratio, after 5 cycles), the “height of the extension product peak versus that with 3′-O-Rox-SS-dATP” value is “more than twice”. For the same compound, the “incorporation efficiency relative to another nucleotide analogue” value in experiment [1] is reported as “much higher efficiency than 3′-O-Rox-SS-dATP”.

(Values after patent US12337009B2, “Nucleotide derivatives and methods of use thereof” (The Trustees of Columbia University in the City of New York, priority 2016, dated 2025).)
